In paper PMC3395220 (Journal of Medicinal Chemistry, 2012):

Tests used:
[1] = tested on: MOLT-4; format: cell-based, human; conditions: 10^Δ2-x, relative to compound 2
[2] = Tolerability during xenograft treatment; format: in vivo, athymic nu/nu mice; conditions: iv q2dx10 10 mg/Kg and q3dx10 20 mg/Kg, colon and melanoma models
[3] = tested on: HS578T; format: cell-based, human; conditions: 10^Δ2-x, relative to compound 2
[4] = tested on: K-562; format: cell-based, human; conditions: 10^Δ2-x, relative to compound 2
[5] = tested on: HOP-92; format: cell-based, human; conditions: 10^Δ2-x, relative to compound 2
[6] = tested on: NCI-H522; format: cell-based, human; conditions: 10^Δ2-x, relative to compound 2
[7] = tested on: NCI/ADR-RES; assay: cells; format: cell-based, human
[8] = tested on: 786-0; format: cell-based, human; conditions: 10^Δ2-x, relative to compound 2
[9] = tested on: HCC-2998; format: cell-based, human; conditions: 10^Δ2-x, relative to compound 2
[10] = tested on: COLO-205 (colon), A549 (non-small cell lung) and BXCP3 (pancreas); assay: cells; format: cell-based; conditions: 72 h, read-out: average GI50 (50% of growth inhibition)
[11] = tested on: HOP-62; format: cell-based, human; conditions: 10^Δ2-x, relative to compound 2
[12] = tested on: T-47D; format: cell-based, human; conditions: 10^Δ2-x, relative to compound 2
[13] = tested on: OVCAR-4; format: cell-based, human; conditions: 10^Δ2-x, relative to compound 2
[14] = tested on: TK-10; format: cell-based, human; conditions: 10^Δ2-x, relative to compound 2
[15] = tested on: SK-OV-3; format: cell-based, human; conditions: 10^Δ2-x, relative to compound 2
[16] = tested on: SW-620; format: cell-based, human; conditions: 10^Δ2-x, relative to compound 2

CO[C@@H]([C@@H]1Cc2cc3cc(O[C@H]4C[C@@H](O[C@H]5C[C@@H](O)[C@H](O)[C@@H](C)O5)[C@H](O)[C@@H](C)O4)c(C)c(O)c3c(O)c2C(=O)[C@H]1O[C@H]1C[C@@H](O[C@H]2C[C@@H](O[C@H]3C[C@H](O)[C@H](O)[C@@H](C)O3)[C@H](O)[C@@H](C)O2)[C@H](O)[C@@H](C)O1)[C@@H](O)C(C)=O [Compound 9, demycarosyl-3D-β-D-digitoxosyl-mithramycin SK]
activity improvement factor [1]: 2.43 | tolerability in xenograft-bearing mice [2]: well tolerated and no signs of toxicity or deaths | activity improvement factor [3]: 1.76 | activity improvement factor [4]: 1.40 | activity improvement factor [5]: 1.11 | activity improvement factor [6]: 0.79 | activity improvement factor ([7]; 10^Δ2-x, relative to compound 2): 0.15 | GI50 ([7]; Homo sapiens): > 10000 nM | activity improvement factor [8]: 1.88 | activity improvement factor [9]: 3.76 | GI50 [10]: 300 to 1300 nM | activity improvement factor [11]: 2.26 | activity improvement factor [12]: 1.74 | activity improvement factor [13]: 3.76 | activity improvement factor [14]: 2.45 | activity improvement factor [15]: 3.85 | activity improvement factor [16]: 1.30
